Blank lines part the entries; values can stand above or below the compound they belong to.
Key:
HDACs 1-11 = assay: HDAC fluorimetric assay; type: biochemical; conditions: for histone deacetylase activity in the presence of the substrate: FIG. 21, BPS#3 as control
Experimental: Material: Assay buffer, Assay developer, HDAC substrate
(§1) Source: BPS Bioscience, Inc.
Add reaction mixtures to low binding black plate. These include: HDAC assay buffer, Bovine serum albumin solution, HDAC substrate, and HDAC enzymes.
Incubate at 37° C. for 30 minutes.
(§2) Stop the reaction by addition of HDAC Assay developer (2×) and incubate plate at room temperature for 15 minutes.
(§3) Read sample in a microtiter-plate reading fluorimeter at excitation wavelength in the range of 350-380 nm and detect in emission range of 440-460 nm.

sirtuins 1-5 = assay: Sirtuin fluorimetric assay; type: biochemical
Experimental: Sirtuin Fluorimetric Assay
Material: substrate available from manufacturer
as §1
Add reaction mixtures to low binding black plate. These include: Sirtuin, HDAC assay buffer, Bovine serum albumin solution, NAD+ solution and Sirtuin substrate.
Incubate at 37° C. for 30 minutes
as §2, §3

[1] = system: HDAC activity in rat brain; assay: PET imaging of HDAC activity in rat brain using [18F]-FAHA (Example 6); type: in vivo
Experimental: Methods: [^18F]-FAHA was synthesized according to the methods developed in our laboratory in high specific activity. Imaging studies with [^18F]-FAHA were conducted in five rats using a PET scanner under isoflurane inhalation anesthesia. The animals were injected intravenously with 37 MBq of [^18F]-FAHA and dynamic scanning PET (0-60 min) was performed. During the imaging session, the rats were anesthetized with 1-1.5 vol % isoflurane/oxygen inhalation and continuously heated with a heating lamp. Two days after the initial study, another PET imaging was performed with [^18F]-FAHA using an […] (SAHA). Each animal was given SAHA (50 mg/kg), intraperitoneally 1 hour prior to injection of the [^18F]-FAHA.
In Table 6, “baseline” refers to brain uptake of FAHA without blocking by SAHA.

[2] = system: MDA-MB435 human breast carcinoma cells; assay: In vitro uptake study of [18F]-FAHA in human breast carcinoma cell line; type: cell-based
Experimental: MDA-MB435 human breast carcinoma cells were grown into flasks with D-MEM/F-12 medium supplemented with 10% FBS and antibiotics at 37° C. in humidified atmosphere with 5% CO2. Cells were kept in the log phase proliferative activity. 5×10^6 of cells in 15 mL of medium were distributed into each tissue culture dish and were incubated at least for 24 hours.
Next day, culture medium was replaced to fresh medium again and was incubated for 3 hours. Then […] of [^18F]-FAHA in […] of saline was added to each dish followed by incubation for 5, 10, 15, 30, 60, and 120 min. At each time point, cells were scraped and were centrifuged at 3,000 rpm for 1 min. After centrifugation, […] of supernatant medium and cells were weighed and their radioactivity measured using a gamma counter. Then the ratio of radioactivity between 1 gram of cells and 1 gram of medium was calculated.
For an inhibition study, cells were incubated in medium with […] of SAHA from 1 hour before adding [^18F]-FAHA.

[3] = system: MB435 human breast carcinoma tumor; assay: PET of [18F]-FAHA in MB435 carcinoma-bearing nu/nu rats, with Gjedde-Patlak analysis (Example 5); type: in vivo, rat
Experimental: MB435 human breast carcinoma cells were grown as described in Example 3, above. About 10×10^6 MB435 cells were injected subcutaneously in female nu/nu rat. When tumor size was 15 mm in diameter, PET imaging studies with [^18F]-FAHA were conducted in five rats using microPET R4 (Concorde). The animals were injected intravenously with […] (1mCi) of [^18F]-FAHA and dynamic scanning (0-60 min) was performed. During the imaging session the rats were anesthetized with 2.0 vol % isoflurane/oxygen inhalation and continuously heated with a heating lamp.
Two days after the initial study, another [^18F]-FAHA PET imaging with an […] (SAHA) was performed. The animals were given SAHA (100 mg/kg) intraperitoneally 1 hour prior to injection of the [^18F]-FAHA.
Both a Gjedde-Patlak plot and a Logan plot were taken. […] The linearity of the plot was checked and a plasma/reference region used as an input. […]

MB435 tumor xenografts = assay: PET of [18F]-FAHA in MB435 tumor xenograft-bearing nude rats (second Example 4); type: in vivo, rat
Experimental: Methods: [^18F]-FAHA was synthesized with high specific activity according to a method developed at M. D. Anderson Cancer Center. Human breast cancer cells, cell line MB435, grown as described in Example 3, were used to grow tumor xenografts in nude rats. Ten million cancer cells were injected subcutaneously in the neck area of six nude rats. When tumors were 1 cm in diameter, animals were anesthetized, injected with [^18F]-FAHA (37 MBq) and PET imaging was performed (dynamic) up to 60 min post-injection. Two days after the initial imaging, another PET imaging with [^18F]-FAHA was performed using a […] (SAHA). The animals were given SAHA (50 mg/kg) intraperitoneally 1 hour prior to injection of the radiotracer.

[4] = 5 min post-injection, without SAHA
[5] = 60 min post-injection, with SAHA 50 mg/kg i.p. 1 hour prior
[6] = 60 min post-injection, without SAHA
[7] = 30 min post-injection, with SAHA 50 mg/kg i.p. 1 hour prior
[8] = 30 min post-injection, without SAHA
[9] = during 60 min post-injection, without SAHA

histone deacetylase activity in the presence of the substrate (HDACs 1-11): inhibited the activity of all HDACs
Compound: CCCC(=O)NCCCCCC(=O)Nc1ccccc1 [PAHA, 6-(ethylacetamido)-1-hexanoicanilide]
qualitative rank of the specificity of various sirtuins (and HDAC-3) for the substrate (sirtuins 1-5): Sirt-2>Sirt-5>Sirt-4>Sirt-3>Sirt-1 >>HDAC-3

Compound: O=C(C[18F])NCCCCCC(=O)Nc1ccccc1 [[^18F]-FAHA, 6-([^18F]-fluoroacetamide)-1-hexanoicanilide]
Brain uptake ([1]; 5 min post-injection, with SAHA 50 mg/kg i.p. 1 hour prior): 0.33 ± 0.05 % ID/g
Brain uptake [1, 4]: 0.44 ± 0.03 % ID/g
brain-to-muscle (B/M) ratio [1, 4]: 2.56 ± 0.33
Brain uptake [1, 5]: 0.23 ± 0.04 % ID/g
brain-to-muscle (B/M) ratio [1, 5]: 1.03 ± 0.08
Brain uptake [1, 6]: 0.40 ± 0.03 % ID/g
brain-to-muscle (B/M) ratio [1, 6]: 2.10 ± 0.63
brain-to muscle ratio reached ([1]; at 5 min post-injection, without SAHA): 1.95
brain uptake reached ([1]; without SAHA): 0.44 % injected dose/g
ratio of radioactivity between 1 gram of cells and 1 gram of medium ([2]; Baseline, 5 min): 1.95 +/− 0.13
ratio of radioactivity between 1 gram of cells and 1 gram of medium ([2]; Baseline, 10 min): 2.09 +/− 0.15
ratio of radioactivity between 1 gram of cells and 1 gram of medium ([2]; Baseline, 15 min): 2.11 +/− 0.12
ratio of radioactivity between 1 gram of cells and 1 gram of medium ([2]; Baseline, 30 min): 2.02 +/− 0.11
ratio of radioactivity between 1 gram of cells and 1 gram of medium ([2]; Baseline, 60 min): 1.84 +/− 0.14
ratio of radioactivity between 1 gram of cells and 1 gram of medium ([2]; Baseline, 120 min): 1.38 +/− 0.12
ratio of radioactivity between 1 gram of cells and 1 gram of medium ([2]; Inhibition: 10 mM of SAHA from 1 hour before [18F]-FAHA, 5 min): 1.16 +/− 0.03
ratio of radioactivity between 1 gram of cells and 1 gram of medium ([2]; Inhibition: 10 mM of SAHA from 1 hour before [18F]-FAHA, 10 min): 1.16 +/− 0.01
ratio of radioactivity between 1 gram of cells and 1 gram of medium ([2]; Inhibition: 10 mM of SAHA from 1 hour before [18F]-FAHA, 15 min): 1.16 +/− 0.03
ratio of radioactivity between 1 gram of cells and 1 gram of medium ([2]; Inhibition: 10 mM of SAHA from 1 hour before [18F]-FAHA, 30 min): 1.16 +/− 0.04
ratio of radioactivity between 1 gram of cells and 1 gram of medium ([2]; Inhibition: 10 mM of SAHA from 1 hour before [18F]-FAHA, 60 min): 1.15 +/− 0.01
ratio of radioactivity between 1 gram of cells and 1 gram of medium ([2]; Inhibition: 10 mM of SAHA from 1 hour before [18F]-FAHA, 120 min): 1.13 +/− 0.02
Tumor-to-muscle uptake ratio ([3]; Baseline, 5 min): 2.01 +/− 0.57
Tumor-to-muscle uptake ratio ([3]; Baseline, 10 min): 2.05 +/− 0.76
Tumor-to-muscle uptake ratio ([3]; Baseline, 15 min): 2.08 +/− 0.83
Tumor-to-muscle uptake ratio ([3]; Baseline, 30 min): 2.20 +/− 0.95
Tumor-to-muscle uptake ratio ([3]; Baseline, 60 min): 2.38 +/− 1.11
Tumor-to-muscle uptake ratio ([3]; Inhibition: SAHA 100 mg/kg i.p. 1 hour prior, 5 min): 1.43 +/− 0.15
Tumor-to-muscle uptake ratio ([3]; Inhibition: SAHA 100 mg/kg i.p. 1 hour prior, 10 min): 1.50 +/− 0.15
Tumor-to-muscle uptake ratio ([3]; Inhibition: SAHA 100 mg/kg i.p. 1 hour prior, 15 min): 1.46 +/− 0.16
Tumor-to-muscle uptake ratio ([3]; Inhibition: SAHA 100 mg/kg i.p. 1 hour prior, 30 min): 1.47 +/− 0.12
Tumor-to-muscle uptake ratio ([3]; Inhibition: SAHA 100 mg/kg i.p. 1 hour prior, 60 min): 1.47 +/− 0.11
Tumor uptake (MB435 tumor xenografts; [7]): 0.70 ± 0.04 % ID/g
tumor-to-muscle (T/M) ratio (MB435 tumor xenografts; [7]): 1.52 ± 0.13
Tumor uptake (MB435 tumor xenografts; [8]): 0.78 ± 0.13 % ID/g
tumor-to-muscle (T/M) ratio (MB435 tumor xenografts; [8]): 1.80 ± 0.17
Tumor uptake (MB435 tumor xenografts; [5]): 0.71 ± 0.02 % ID/g
tumor-to-muscle (T/M) ratio (MB435 tumor xenografts; [5]): 1.64 ± 0.10
Tumor uptake (MB435 tumor xenografts; [6]): 0.79 ± 0.13 % ID/g
tumor-to-muscle (T/M) ratio (MB435 tumor xenografts; [6]): 1.95 ± 0.19
tumor uptake achieved (MB435 tumor xenografts; [9]): approximately 0.8 % injected dose (ID)/g
tumor-to muscle ratio reached (MB435 tumor xenografts; [9]): 1.95

histone deacetylase activity in the presence of the substrate (HDACs 1-11): inhibited the activity of all HDACs
Compound: CC(C)CC(=O)NCCCCCC(=O)Nc1ccccc1 [Iso-PAHA, 6-(isopropylacetamido)-1-hexanoicanilide]
qualitative rank of the specificity of various sirtuins (and HDAC-3) for the substrate (sirtuins 1-5): Sirt-2>Sirt-5>Sirt-4>Sirt-3>Sirt-1

Compound: O=C(CCCCCNC(=O)C(F)(F)F)Nc1ccccc1 [3FAHA, 6-(trifluoroacetamido)-1-hexanoicanilide]
qualitative rank of the specificity of various HDACs for the substrate (HDACs 1-11): HDAC-9>HDAC-7>HDAC-5>HDAC-8>HDAC-4>HDAC-11

histone deacetylase activity in the presence of the substrate (HDACs 1-11): inhibited the activity of all HDACs
Compound: O=C(Cc1ccccc1)NCCCCCC(=O)Nc1ccccc1 [PhAHA, 6-(phenylacetamido)-1-hexanoicanilide]
qualitative rank of the specificity of various sirtuins (and HDAC-3) for the substrate (sirtuins 1-5): Sirt-2 >>Sirt-3>Sirt-4>Sirt-5>Sirt-1

Compound: O=C(CF)NCCCCCC(=O)Nc1ccccc1 [FAHA, 6-(fluoroacetamido)-1-hexanoicanilide]
qualitative rank of the specificity of various HDACs for the substrate (HDACs 1-11): HDAC-9>HDAC-5>HDAC-8>HDAC-4>HDAC-6>HDAC-1

From patent US20100278730A1, “Non-Invasive Molecular Imaging of Cellular Histone Deacetylase Substrate Using Magnetic Resonance Spectroscopy (MRS) or Positron Emission Tomography (PET)” (priority 2007, published 2010)
